The record followed here is US20240084237A1, “A DEVICE HAVING A SUPPORT STRUCTURE FOR CREATING A HOLLOW, THREE-DIMENSIONAL ORGANOIDS AND CULTURES” (The Trustees of Indiana University, priority 2021, published 2024).

This assay relates to iMG incorporated into the hollow organoid culture. The experiment in a line: neural inflammation model: iMG incorporated into hollow (tubular) brain organoid culture, drug treatment. It counts as cell-based, human. Particulars: for response of iMG incorporated into the hollow organoid culture to external stimulation: recapitulating the in vivo phenotype and functions during neural inflammation, LPS 100 ng/mL 24 hours followed by ATP 2 mM 30 minutes, DAMGO 100 nM 24 hours. The method, then: To differentiate WA01 cells into microglia, WA01 cells were plated onto Matrigel (Corning) coated 6-well plate at a density of 30-40 colonies per well. The WA01 cells were then differentiated into hematopoietic progenitor cells (HPC) using STEMdiff hematopoietic kit (Stemcell Technologies). The differentiated WA01 derived HPC was then further differentiated into induced microglia (iMG) cells using STEMdiff Microglia Differentiation kit (Stemcell Technologies).
To treat microglia cultured in well plates or microglia embedded in hFO, lipopolysaccharide (LPS) (Sigma) is dosed at 100 ng/mL for 24 hours followed by Adenosine 5′-triphosphate (ATP) (Sigma) at a concentration of 2 mM for 30 minutes. Similarly, DAMGO was given at a concentration of 100 nM for 24 hours. For LY-2828360 (Cayman Chemicals) treatment, microglia treated with DAMGO for 24 hours was refreshed with a medium containing 100 nM LY-2828360 for an additional 24 hours.
To visualize inflammasome activation inside microglia cells, we analyzed NLRP3/ASC colocalization by proximity ligation assay (PLA). Samples were subject to NLRP3/ASC staining following by colocalization PLA using the Duolink in situ red kit (Sigma). After the PLA labeling, samples were then additionally labeled by Iba1/MAP2 before coverslipped with Prolong gold anti-fade DAPI mounting medium (Thermo Fisher) and visualized under an inverted fluorescence microscope (Olympus IX-83).
Conditioned medium of 24 hours (total volume 500 μL) from control conditions or drug-treated conditions were collected from microglia cultured in 24 well plates or incorporated inside tubular organoids. The medium was centrifuged at 2,000 g for 10 minutes to remove cell debris. 400 μL of supernatant was then aspirated and used for ELISA assays. Samples were assayed using ELISA plates for IL-1β (Tribioscience), IL-18 (Tribioscience), and TNF-α (Abcam). Each sample was tested in triplicates and read at 450 nm for absorbance.

In the case of `Cc1nc(N2CCN(C)CC2)c2nc(-c3ccccc3Cl)n(C3CCOCC3)c2n1` [LY282860], where the note is “100 nM for additional 24 hours after DAMGO 24 hours”, the “response of the neural inflammation model to treatment (therapeutics screening)” value is listed as “evident responses”. With `C[C@@H](NC(=O)[C@@H](N)Cc1ccc(O)cc1)C(=O)NCC(=O)N(C)[C@@H](Cc1ccccc1)C(=O)NCCO` [DAMGO], the “response of iMG incorporated into the hollow organoid culture to external stimulation” value was “can respond”. Turning to lipopolysaccharide [LPS], the “response of iMG incorporated into the hollow organoid culture to external stimulation” value is on record as “can respond”.
